The series can be described thus: Dynamic moisture-sorption (DMS) analysis. The class given is physicochemical. The note with it: at about 90% RH and 25° C. As for the experimental part:
A dynamic moisture-sorption (DMS) study was conducted using a dynamic moisture-sorption analyzer, VTI Corporation, SGA-100. Samples were prepared for DMS analysis by placing 5 mg to 20 mg of a sample in a tared sample holder. The sample was placed on the hang-down wire of the VTI balance. A drying step was run, typically at 40° C. and 0.5-1% RH for 1 h. The isotherm temperature is 25° C. Defined % RH holds typically ranged from 10% RH to 90% RH, with intervals of 10 to 20% RH. A % weight change smaller than 0.010% over 10 min, or up to 2 h, whichever occurred first, was required before continuing to the next % RH hold. The water content of the sample equilibrated as described above was determined at each % RH hold.

Regarding `CN(C)C(=O)c1ccc(Nc2ncnc(N3CCC(c4nc(C(C)(C)F)no4)CC3)c2F)c(F)c1` [Compound 1 (Anhydrous Form), 3-fluoro-4-(5-fluoro-6-(4-(3-(2-fluoropropan-2-yl)-1,2,4-oxadiazol-5-yl)piperidin-1-yl)pyrimidin-4-ylamino)-N,N-dimethylbenzamide], the DMS weight gain entry is listed as “FIG. 8: Less than about 0.35% weight gain at about 90% RH”.

The values are drawn from patent US10894787B2, “Modulators of the GPR119 receptor and the treatment of disorders related thereto” (Arena Pharmaceuticals, Inc., priority 2010, dated 2021).
